Data as given in patent US20240336593A1, “Compound Having Antitumor Activity And Use Thereof” (lnnovStoneTherapeutics Limited, priority 2020, published 2024).
Structures can show the parent of a compound that is named as a salt.

target: PRMT5 (Homo sapiens (Human), UniProt O14744); assay: Inhibitory activity against PRMT5 enzyme by radioisotopic method; format: biochemical; details: PRMT5 5 nM, [3H]-SAM 0.3 μM, polypeptide substrate GL-27 100 nM, room temperature
Protocol: Test Example 1. Test on the inhibitory activity of the compounds of the invention against PRMT5 enzyme by radioisotopic method
Test method: A 1× enzyme reaction buffer (10 mM Tris 8.0 (Sigma, Cat. No. T2694-1L), 0.01% Tween-20 (Sigma, Cat. No. P2287-100 ML), 1 mM DTT (Sigma, Cat. No. D0632-10G)) was prepared. PRMT5 (Active Motif, Cat. No. 31921) and [3H]—SAM (PerkinElmer, Cat. No. NET155V001MC) were added to the 1×enzyme reaction buffer, to prepare a 25/15× mixed solution (PRMT5 final concentration: 5 nM, [3H]—SAM final concentration: 0.3 μM). 15 μL of this solution was transferred into a 384-well microplate (Corning 384-well Polypropylene Storage Microplates, Cat. No. 3657) with various concentrations of the compounds (DMSO final concentration 1%), and incubated at room temperature for 60 minutes. A polypeptide substrate, GL-27 (Ac-[…]-K (Biotin) (GL Biochem, Cat. No. 342095)), was added into the 1×enzyme reaction buffer to prepare a 25/10× substrate solution. Then 10 μL of the polypeptide substrate solution (final concentration of the polypeptide substrate: 100 nM) was added, a reaction was stirred at room temperature for 120 minutes, and then 5 μL 6× ice cold SAM (Sigma, Cat. No. A7007-100 MG) solution was added to stop the reaction (SAM final concentration: 0.125 mM). 25 µL of the reaction mixture was transferred into a FlashPlate (Streptavidin FlashPlate HTS PLUS, High Capacity, 384-well, Perkin Elmer, Cat. No. SMP410A001PK), and incubated at room temperature for 1 h. After washed three times with distilled water containing 0.1% Tween-20, the microplate was read on a MicroBeta reader for CPM data (Counts Per Minute). […] Then the inhibition rate Inh % (Y) corresponding to each concentration (X) was input in EXCEL, and the IC50 value (the half maximal inhibitory concentration) of each compound was calculated with the XLfit plug-in according to the built-in four-parameter fitting equation Y=Bottom+(Top-Bottom)/(1+(IC50/X)[…]).

Sequence of PRMT5 (O14744 whole entry): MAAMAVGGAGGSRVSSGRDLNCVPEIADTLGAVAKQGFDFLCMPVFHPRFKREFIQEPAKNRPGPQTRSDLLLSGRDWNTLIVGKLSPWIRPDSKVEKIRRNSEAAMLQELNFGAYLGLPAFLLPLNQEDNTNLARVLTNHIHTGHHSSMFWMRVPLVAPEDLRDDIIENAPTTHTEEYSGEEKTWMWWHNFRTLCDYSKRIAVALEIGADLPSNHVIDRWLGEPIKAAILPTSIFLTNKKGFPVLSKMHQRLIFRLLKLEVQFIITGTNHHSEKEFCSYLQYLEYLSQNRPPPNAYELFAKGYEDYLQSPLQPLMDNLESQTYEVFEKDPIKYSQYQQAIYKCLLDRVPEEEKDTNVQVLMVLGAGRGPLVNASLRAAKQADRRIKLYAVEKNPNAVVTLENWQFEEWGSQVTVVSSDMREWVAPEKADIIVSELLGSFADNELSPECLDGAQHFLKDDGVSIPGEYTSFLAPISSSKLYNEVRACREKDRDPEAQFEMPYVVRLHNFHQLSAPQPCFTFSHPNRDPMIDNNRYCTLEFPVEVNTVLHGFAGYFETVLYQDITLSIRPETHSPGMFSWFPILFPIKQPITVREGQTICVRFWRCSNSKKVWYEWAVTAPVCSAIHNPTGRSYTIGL
Sequence of PRMT5 (Q9BQA1 whole entry partner): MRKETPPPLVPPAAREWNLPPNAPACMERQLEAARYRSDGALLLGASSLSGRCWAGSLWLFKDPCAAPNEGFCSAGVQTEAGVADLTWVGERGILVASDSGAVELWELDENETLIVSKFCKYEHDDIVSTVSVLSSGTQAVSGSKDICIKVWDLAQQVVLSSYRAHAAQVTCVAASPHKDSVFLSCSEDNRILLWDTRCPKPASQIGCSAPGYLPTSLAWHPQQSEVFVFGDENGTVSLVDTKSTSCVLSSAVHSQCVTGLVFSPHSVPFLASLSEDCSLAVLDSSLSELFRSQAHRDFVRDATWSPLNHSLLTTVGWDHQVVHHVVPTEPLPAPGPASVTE

| SMILES | IC50 |
| --- | --- |
| COc1cccc(Nc2cc(N3CC[C@H](N4CCc5ccccc5C4)[C@@H](O)C3)ncn2)c1 (relative stereo) [Example 47, trans-1-(6-((3-methoxyphenyl)amino)pyrimidin-4-yl)-4-(3,4-dihydroisoquinolin-2(1H)-yl)piperidin-3-ol] | < 100 nM |
| O[C@H]1CN(c2cc(Nc3cccc(F)c3)ncn2)CC[C@@H]1N1CCc2ccccc2C1 (relative stereo) [Example 42, trans-1-(6-((3-fluorophenyl)amino)pyrimidin-4-yl)-4-(3,4-dihydroisoquinolin-2(1H)-yl)piperidin-3-ol] | < 100 nM |
| O[C@@H]1CN(c2cc(Nc3cccc(N4CCOCC4)c3)ncn2)CC[C@H]1N1CCc2ccccc2C1 (relative stereo) [Example 73, trans-4-(3,4-dihydroisoquinolin-2(1H)-yl)-1-(6-((3-morpholinophenyl)amino)pyrimidin-4-yl)piperidin-3-ol] | < 100 nM |
| CC(=O)N1CCC(Nc2cc(C(=O)N3CC[C@@H](N4CCc5ccccc5C4)[C@H](O)C3)nc(SC(C)C)n2)CC1 [Example 155, 1-(4-((6-((3R,4R)-4-(3,4-dihydroisoquinolin-2(1H)-yl)-3-hydroxy-piperidine-1-carbonyl)-2-(isopropylthio)pyrimidin-4-yl)amino)piperidin-1-yl)ethan-1-one hydrochloride] | < 100 nM |
| CC(=O)N1CCC(Sc2cc(C(=O)N3CC[C@H](N4CCc5ccccc5C4)[C@@H](O)C3)ncn2)CC1 (relative stereo) [Example 119, trans-1-(4-((6-(4-(3,4-dihydroisoquinolin-2(1H)-yl)-3-hydroxypiperidine-1-carbonyl)pyrimidin-4-yl)thio)piperidin-1-yl)ethan-1-one] | < 100 nM |
| O[C@H]1CN(c2cc(Nc3cccc(Cl)c3)ncn2)CC[C@@H]1N1CCc2ccccc2C1 (relative stereo) [Example 43, trans-1-(6-((3-chlorophenyl)amino)pyrimidin-4-yl)-4-(3,4-dihydroisoquinolin-2(1H)-yl)piperidin-3-ol] | < 100 nM |
| N#CC1CCC(Nc2cc(C(=O)N3CC[C@H](N4CCc5ccccc5C4)[C@@H](O)C3)ncn2)CC1 (stereo partly drawn) [Example 138, 4-((6-(trans-4-(3,4-dihydroisoquinolin-2(1H)-yl)-3-hydroxypiperidine-L-carbonyl)pyrimidin-4-yl)amino)cyclohexane-1-carbonitrile] | < 100 nM |
| CNC(=O)c1cccc(Nc2cc(C(=O)N3CC[C@H](N4CCc5ccccc5C4)[C@@H](O)C3)ncn2)c1 (relative stereo) [Example 134, trans-3-((6-(4-(3,4-dihydroisoquinolin-2(1H)-yl)-3-hydroxypiperidine-1-carbonyl)pyrimidin-4-yl)amino)-N-methylbenzamide] | < 100 nM |
| O[C@@H]1CN(c2cc(Nc3cccc(F)c3F)ncn2)CC[C@H]1N1CCc2ccccc2C1 (relative stereo) [Example 87, trans-1-(6-((2,3-difluorophenyl)amino)pyrimidin-4-yl)-4-(3,4-dihydroisoquinolin-2(1H)-yl)piperidin-3-ol] | < 100 nM |
| O[C@H]1CN(c2cc(Nc3ccc(N4CCOCC4)cc3)ncn2)CC[C@@H]1N1CCc2ccccc2C1 (relative stereo) [Example 49, trans-4-(3,4-dihydroisoquinolin-2(1H)-yl)-1-(6-((4-morpholinylphenyl)amino)pyrimidin-4-yl)piperidin-3-ol] | < 100 nM |
| COc1ccc(F)cc1Nc1cc(N2CC[C@@H](N3CCc4ccccc4C3)[C@H](O)C2)ncn1 (relative stereo) [Example 92, trans-1-(6-((5-fluoro-2-methoxyphenyl)amino)pyrimidin-4-yl)-4-(3,4-dihydroisoquinolin-2(1H)-yl)piperidin-3-ol] | < 100 nM |
| O=C(c1cc(Nc2cccc(N3CCCC3)c2)ncn1)N1CC[C@H](N2CCc3ccccc3C2)[C@@H](O)C1 [Example 108] | < 100 nM |
| CC(=O)N1CCC(Nc2cc(C(=O)N3CC[C@@H](N4CCc5ccccc5C4)[C@H](O)C3)nc(OCC(C)C)n2)CC1 [Example 140, 1-(4-((6-((3R,4R)-4-(3,4-dihydro-4,4-dideuterium-isoquinolin-2(1H)-yl)-3-hydroxypiperidine-1-carbonyl)-2-isobutoxypyrimidin-4-yl)amino)piperidin-1-yl)ethan-1-one] | < 100 nM |
| O[C@H]1CN(c2cc(Nc3ccc(Cl)cc3)ncn2)CC[C@@H]1N1CCc2ccccc2C1 (relative stereo) [Example 62, trans-4-(3,4-dihydroisoquinolin-2(1H)-yl)-1-(6-((4-chlorophenyl)amino)pyrimidin-4-yl)piperidin-3-ol] | < 100 nM |
| CC(C)(C)c1cccc(Nc2cc(N3CC[C@H](N4CCc5ccccc5C4)[C@@H](O)C3)ncn2)c1 (relative stereo) [Example 37, trans-1-(6-((3-t-butylphenyl)amino)pyrimidin-4-yl)-4-(3,4-dihydroisoquinolin-2(1H)-yl)piperidin-3-ol] | < 100 nM |
| CC(=O)N1CCC(Nc2cc(C(=O)N3CC[C@@H](N4CCc5ccccc5C4)[C@H](O)C3)nc(OC3CCC(F)(F)CC3)n2)CC1 [Example 154, 1-(4-((2-((4,4-difluorocyclohexyl)oxy)-6-((3R,4R)-4-(3,4-dihydroisoquinolin-2(1H)-yl)-3-hydroxypiperidine-1-carbonyl)pyrimidin-4-yl)amino)-piperidin-1-yl)ethan-1-one] | < 100 nM |

Further lines, results first:

| IC50 | SMILES |
| --- | --- |
| < 100 nM | O[C@H]1CN(c2cc(Nc3ccc(F)cc3)ncn2)CC[C@@H]1N1CCc2ccccc2C1 (relative stereo) [Example 30, trans-4-(3,4-dihydroisoquinolin-2(1H)-yl)-1-(6-((4-fluorophenyl)amino)-pyrimidin-4-yl)piperidin-3-ol] |
| < 100 nM | COC(=O)N1CCC(Nc2cc(C(=O)N3CC[C@H](N4CCc5ccccc5C4)[C@@H](O)C3)ncn2)CC1 (relative stereo) [Example 123, methyl trans-4-((6-(4-(3,4-dihydroisoquinolin-2(1H)-yl)-3-hydroxypiperidine-1-carbonyl)pyrimidin-4-yl)amino)piperidine-1-carboxylate] |
| < 100 nM | O=C(c1cc(NC2CCN(C(=O)C3CC3)CC2)ncn1)N1CC[C@H](N2CCc3ccccc3C2)[C@@H](O)C1 (relative stereo) [Example 116, trans-(6-((1-(cyclopropanecarbonyl)piperidin-4-yl)amino)pyrimidin-4-yl)(4-(3,4-dihydroisoquinolin-2(1H)-yl)-3-hydroxypiperidin-1-yl)ketone] |
| < 100 nM | O=C(c1cc(N2CC[C@H](N3CCc4ccccc4C3)[C@@H](O)C2)ncn1)N1CC[C@H](N2CCc3ccccc3C2)[C@@H](O)C1 [Example 97] |
| < 100 nM | CC(=O)N1CCC(Nc2cccc(C(=O)N3CC[C@H](N4CCc5ccccc5C4)[C@@H](O)C3)c2)CC1 (relative stereo) [Example 28, trans-1-(4-((3-(4-(3,4-dihydroisoquinolin-2(1H)-yl)-3-hydroxypiperidine-1-carbonyl)phenyl)amino)piperidin-1-yl)ethan-1-one] |
| < 100 nM | CC(=O)N1CCC(Nc2cc(C(=O)N3CC[C@H](N4CCc5ccccc5C4)[C@@H](O)C3)nc(-c3ccncc3)n2)CC1 [Example 139] |
| < 100 nM | O[C@H]1CN(c2cc(Nc3ccc(F)c(F)c3)ncn2)CC[C@@H]1N1CCc2ccccc2C1 (relative stereo) [Example 78, trans-1-(6-((3,4-difluorophenyl)amino)pyrimidin-4-yl)-4-(3,4-dihydroisoquinolin-2(1H)-yl)piperidin-3-ol] |
| < 100 nM | COc1cc(F)ccc1Nc1cc(N2CC[C@H](N3CCc4ccccc4C3)[C@@H](O)C2)ncn1 (relative stereo) [Example 93, trans-4-(3,4-dihydroisoquinolin-2(1H)-yl)-1-(6-((4-fluoro-2-methoxyphenyl)amino)pyrimidin-4-yl)piperidin-3-ol] |
| < 100 nM | CC(=O)N1CCC(Nc2cc(C(=O)N3CC[C@H](N4CCc5ccccc5C4)[C@@H](O)C3)nc(Cl)n2)CC1 (relative stereo) [Example 117, trans-1-(4-((2-chloro-6-(4-(3,4-dihydroisoquinolin-2(1H)-yl)-3-hydroxypiperidine-1-carbonyl)pyrimidin-4-yl)amino)piperidin-1-yl)ethan-1-one] |
| < 100 nM | O=C(C(=O)N1CCC(Nc2cc(C(=O)N3CC[C@H](N4CCc5ccccc5C4)[C@@H](O)C3)ncn2)CC1)C1CC1 (relative stereo) [Example 99, trans-1-cyclopropyl-2-(4-((6-(4-(3,4-dihydroisoquinolin-2(1H)-yl)-3-hydroxypiperidine-1-carbonyl)pyrimidin-4-yl)amino)piperidin-1-yl)ethane-1,2-dione] |
| < 100 nM | O[C@@H]1CN(c2cc(Nc3cccc(Cl)c3Cl)ncn2)CC[C@H]1N1CCc2ccccc2C1 [Example 89] |
